Data: patent publication US5925369A, “Bis alkanoyl esters of carnitine having bactericidal, fungicidal and antiprotozoal activity” (priority 1996, dated 1999)
Read-outs that look alike come from different tables or passages of the source.

Columns and labels:
Candida strains = experiment: MIC on Candida strains (all clinical isolates); type: cell-based, Candida albicans; settings: for MIC: Candida clinical isolates, 10 strains
Description: Overnight yeast cultures in Sabouraud broth are appropriately washed and diluted in Yeast Nitrogen Base supplemented with asparagine and glucose (Y.N.B.s.) to yield approximately 5.0×10^4 CFU/ml in microtiter wells. Substance dilutions (0.3 log) in Y.N.B.s. are added to these suspensions to a final concentration range from 0.19 to 100 mcg/ml. Microtiter plates are then incubated at 35° C. for 24-48 hours (See PFALLER M., RINALDI M. G., […] J. M., BARTLETT M. S., BODY B. A., ESPINEL-INGROFF A., FROMTLING R. A., HALL G. S., HUGHES G. E., ODDS F. C., SUGAR A. M., Collaborative investigator of variables in susceptibility testing of yeasts, Ant. Agent and Chemoth., 34, 9:1648-1656, 1990. COOK R., McINTYRE K. A., […] J. M., Effects of incubation temperature, inoculum size, and medium on agreement of macro and microdilution broth susceptibility test, results for yeasts, Ant. Agent and Chemoth., 34, 8:1542-1545, 1990. […] E., PAETZNICK V., BODEY G. P., Fluconazole susceptibility testing of "Candida albicans" microtiter method that is indipendent of inoculum size, temperature, and time of reaching, Ant. Agent and Chemoth., 35, 8:1641-1646, 1991).

filamentous fungi = experiment: MIC on filamentous fungi (all strains); type: cell-based; settings: for MIC: lab collection, 5 strains
Description: The conidia are collected from 72-hour cultures in Sabouraud agar by washing them with Sabouraud broth and 0.5% Tween 80. After a coarse filtration and washing, the resulting suspensions are adjusted to a final concentration of approx. 5.0×10^4 CFU/ml in a microtiter plate. The substances (0.3 log dilutions in Y.N.B.s.) are added to the fungal suspensions in order to generate a range of final concentrations from 0.19 to 100 mcg/ml. The microtiter plates are then incubated at 35° C. for 48-72 hours.

dermatophytes = experiment: MIC on dermatophytes (all strains); type: cell-based; settings: for MIC: 22 strains
Description: Mycelium fragments, micro and macroaleuriospores are harvested from 7-day fungal cultures grown at 30 ° C. in Potato Dextrose agar by washing them with Sabouraud broth and 0.5% Tween 80. After a coarse filtration and washing, the fungal suspension is resuspended in Yeast Nitrogen Base supplemented with asparagine and glucose (YNBs) to yield a final concentration of 1.0×10^5 infective units/ml in a microtiter plate. The substances (0.3 log dilutions in Y.N.B.s.) are added to the fungal suspensions in order to generate a range of final concentrations from 0.19 to 100 mcg/ml. The microtiter plates are then incubated at 30° C. for 96-120 hours.

Trichomonas vaginalis = experiment: MIC on protozoa (Trichomonas vaginalis); type: cell-based; settings: for MIC: Trichomonas vaginalis
Description: Protozoal suspensions are prepared from 24-hour cultures grown at 37° C. and 5% CO2 in DIAMOND T.Y.M. broth supplemented with 10% heat-inactivated FCS.
The suspensions are adjusted, in the same medium, to a final concentration of 2.5×10^5 cells/ml in each well of a 96-well microtiter plate. Substance dilutions (0.3 log) are added to the suspensions in order to have a range of final concentrations from 0.19 to 100 mcg/ml. Microtiters are then incubated at 37° C. and 5% CO2 for 24 hours. MIC is referred to as the minimal concentration inhibiting either protozoa or flagella or undulating membrane motility (Cf. JULIANO C., MARTINOTTI M. G., […] P., In vitro effect of microtubule inhibitors on T. vaginalis, Microbiologia, 8:31-42, 1985. LOVGREN T. and SALMELA I., Invitro sensitivity of T. vaginalis and C. albicans to chemotherapeutic agents, Acta Path. Microbiol. Scand.. 86:155-158, 1978).

mouse scarified skin = experiment: Dermal tolerability after repeated treatments (10 days) on mouse scarified skin; type: in vivo, CD1 mice; settings: 1% gel; for Cracking (C), mean score / Desquamation (D), mean score / Erythema (E), mean score: scale 0-3, 50 mg/day
Description: Male CD1 mice (C. RIVER), aged 6 weeks, were used (5 animals per group).
Substance formulations (1% of test article) were prepared in gel (Hydroxyethyl-cellulose, 2.5 gr.; Glycerin, 7.0 gr.; Propylene Glycol, 7.0 gr.; water up to 100 ml).
The central dorsal zone of the animals was first shaved, and then gently abraded with a scalpel blade. Treatment was performed 1 day following the dermal abrasion by administering 50 mg of each substance formulation once a day, for 10 consecutive days. The treated skin areas were examined at 5, 7, 9, and 11 days following scarification. The evaluation was based upon grading of the lesions as […] (E), DESQUAMATION (D), and CRACKING (C), according to the following scale:
The mean of the values of each parameter in the same animal group allowed us to evaluate the tissue damage provoked by the substance under examination.

Eubacterium lentum = experiment: MIC on anaerobic bacteria; type: cell-based; settings: Eggerthella lenta; Eubacterium lentum IDI 3502, anaerobic, Gram positive clinical isolate (suppurative wound); read-out: Minimal Inhibitory Concentration
Description: (§1) Bacteria from cultures in […].) medium on Petri dishes, grown overnight at 35° C. in an anaerobic jar, were resuspended in Brucella broth. The suspensions were adjusted to 1.0×10^8 cells/ml and distributed (0.2 ml/well) in microtiter plates (96-well U-bottomed plate). At the same time, 0.3 log dilutions of the substances are mixed with W. C. agar medium in four-sectioned Petri dishes, which are then seeded with the bacterial suspension by means of a multipoint inoculator (1.0×10^5 cells/spot). The plates are then incubated at 35° C. for 48 hours in an anaerobic jar) (See J. E. ROSENBLATT, Antimicrobial susceptibility testing of anaerobes, in Antibiotics in laboratory medicine. V. LORIAN Ed., II edition, 6, 159-180, Williams & Wilkins, Baltimora, Md 21202 U.S.A.).

Propionibacterium acnes = experiment: MIC on anaerobic bacteria; type: cell-based; settings: Cutibacterium acnes; Propionibacterium acnes IDI 3482, anaerobic, Gram positive clinical isolate (suppurative acne); read-out: Minimal Inhibitory Concentration
Description: as §1

Bacteroides fragilis = experiment: MIC on anaerobic bacteria; type: cell-based; settings: ATCC25285; Bacteroides fragilis ATCC 25285, anaerobic, Gram negative, lab collection; read-out: Minimal Inhibitory Concentration
Description: as §1

[1] = T. vaginalis SS-2, read-out: Minimal Inhibitory Concentration
[2] = T. vaginalis SS-9, read-out: Minimal Inhibitory Concentration
[3] = T. vaginalis SS-20, Metronidazole resistant, read-out: Minimal Inhibitory Concentration
[4] = T. vaginalis SS-22, Metronidazole resistant, read-out: Minimal Inhibitory Concentration
[5] = T. vaginalis, 4 strains, read-out: Mean MIC

Row | SMILES | MIC (Candida strains) [µg/mL] | MIC (filamentous fungi) [µg/mL] | MIC (dermatophytes) [µg/mL] | MIC (Trichomonas vaginalis; [1]) [µg/mL] | MIC (Trichomonas vaginalis; [2]) [µg/mL] | MIC (Trichomonas vaginalis; [3]) [µg/mL] | MIC (Trichomonas vaginalis; [4]) [µg/mL] | MIC (Trichomonas vaginalis; [5]) [µg/mL] | Cracking (C), mean score (mouse scarified skin; day +5) | Desquamation (D), mean score (mouse scarified skin; day +5) | Erythema (E), mean score (mouse scarified skin; day +5) | Cracking (C), mean score (mouse scarified skin; day +7) | Desquamation (D), mean score (mouse scarified skin; day +7) | Erythema (E), mean score (mouse scarified skin; day +7) | Cracking (C), mean score (mouse scarified skin; day +9) | Desquamation (D), mean score (mouse scarified skin; day +9) | Erythema (E), mean score (mouse scarified skin; day +9) | Cracking (C), mean score (mouse scarified skin; day +11) | Desquamation (D), mean score (mouse scarified skin; day +11) | Erythema (E), mean score (mouse scarified skin; day +11) | also measured
1 | CCCCCCCCCCCOC(=O)C[C@H](C[N+](C)(C)C)OC(=O)CC(C)C [ST 1103, isovaleryl L-carnitine undecyl ester methanesulfonate, reference compound] | 4.68 | 18.8 | 13.5 | 25 | 25 | 25 | 25 | 25 | 0 | 0.4 | 1.2 | 0 | 0.4 | 0.4 | 0 | 0 | 0 | 0 | 0 | 0 | MIC (Eubacterium lentum): 3.12 µg/mL; MIC (Propionibacterium acnes): 6.25 µg/mL; MIC (Bacteroides fragilis): 25 µg/mL
2 | CCCCCCCCCCC(=O)O[C@H](CC(=O)OCc1ccc(COC(=O)C[C@H](C[N+](C)(C)C)OC(=O)CCCCCCCCCC)cc1)C[N+](C)(C)C [ST 1226, bis(undecanoyl L-carnitine chloride)p-xylilene diester] | 2.49 | 8.43 | 3.19 | 12.5 | 12.5 | 12.5 | 12.5 | 12.5 | 0 | 0 | 0.2 | 0 | 0 | 0 | 0 | 0 | 0 | 0 | 0 | 0 | activity compared with ST 1103 (Candida strains; yeast-like strains, mostly Candida clinical isolates): higher activity than ST 1103, mostly against Candida clinical isolates; activity compared with ST 1103 (filamentous fungi; single results and mean MIC): markedly higher activity than ST 1103; activity compared with ST 1103 (dermatophytes): higher activity than ST 1103; greater (fold) activity than ST 1103 (Trichomonas vaginalis; T. vaginalis, ST 1226 vs ST 1103): 2 fold; dermal tolerability compared with ST 1103 (mouse scarified skin; 10 days): better tolerated than ST1103; MIC (Eubacterium lentum): 6.25 µg/mL; MIC (Propionibacterium acnes): 6.25 µg/mL; MIC (Bacteroides fragilis): 12.5 µg/mL
